Assay results from publication PMC4809498, “Artonin E Induces Apoptosis via Mitochondrial Dysregulation in SKOV-3 Ovarian Cancer Cells” (PLoS ONE, 2016).
Values after ≈ are worked out from the molar mass of the structure shown.

Experiments:
[1] = test system: SKOV-3 cells; assay: Intracellular ROS generation (DCFH-DA); assay type: cell-based, human; conditions: SKOV-3, 8 μg/mL
Procedure: 2′,7′-Dichlorofluorescin diacetate (DCFH-DA) was used to examine the production of intracellular reactive oxygen species in SKOV-3 cells treated with artonin E. The SKOV-3 cells were seeded in the 96-well black plate and incubated overnight to attach. The cells were then treated with 8 μg/mL of artonin E for 24, 48, and 72 h. Hank’s balanced salt solution without serum was used to wash the cells. Then, 100 μL of DCFH-DA solution was added to each designated well, and the plate was incubated at 37°C for 30 min. The results were analyzed using a fluorescence microplate reader (Tecan Infinite M 200 PRO, Männedorf, Switzerland) at 485 nm excitation and 520 nm emission.

[2] = test system: caspase-9; assay: Colorimetric caspase-9 activation assay; assay type: cell-based, human; conditions: SKOV-3, 8 μg/mL, from 24 h, prolonged exposure
Procedure: Calorimetric assay of the activation of caspases-3, -8, and -9 was conducted using R & D system kit, USA. Briefly, in a T75cm^2 flask 90% confluent SKOV-3 cells were induced with artonin E for 24, 48, and 72 h. The induced cells were trypsinized and centrifuged at 1,800 rpm for 10 min. The fresh pellets were washed with cold PBS and immediately lysed with protein lysis buffer. The cell lysate was then kept on ice for 10 min, centrifuged at 10,000 g for 15 min, and transferred into a new tube. The fresh cell lysate (50 μL), which contained 100–200 μg of protein, was added into a 96-well plate in triplicate. Fifty microliters of reaction buffer and 5 μL of caspase were then transferred into each designated well before incubating the plate in a CO2 incubator at 37°C for 2 h. A microplate reader (Tecan Infinite M 200 PRO, Männedorf, Switzerland) was used for analysis at a wavelength of 405 nm.

[3] = test system: SKOV-3 cells; assay: DNA fragmentation (laddering) assay; assay type: cell-based, human; conditions: SKOV-3, 8 μg/mL, 24, 48, 72 h, 1.5% agarose gel
Procedure: SKOV-3 cells were treated with artonin E at different time points, and harvested by adding trypsin to promote detachment. The detached cells were spun down and washed two times with cold PBS. The DNA from cells in the suspension was extracted using the suicide Track^TM DNA ladder isolation kit (Calbiochem, EMD Bioscience, Germany). The cells were then lysed by mixing 55 μL of TE (Tris and EDTA) lysis buffer and 20 μL of enzyme A (RNase A). The resulting mixture was incubated at 37°C for 1 h. Subsequently, 25 μL of enzyme B (proteinase K) was added and the lysate was kept in a water bath at 50°C overnight. Following incubation, 2 μL of Pellet Paint, 60 μL of 3M sodium acetate, and 662 μL of 2-propanol were added to the lysate, and the solution was briefly mixed by inversion and incubated at room temperature for 2 min. The DNA was then precipitated by centrifugation of the samples at 16,000×g for 5 min. The supernatant was removed and the fresh pellets were rinsed two times with 70% and 100% ice-cold ethanol. The pellets were air dried at room temperature for a few minutes to discard the ethanol and resuspended with 50 μL of DNA resuspension buffer. The prepared DNA ladder samples were loaded onto a 1.5% gel electrophoresis set up and run at 50 constant volts for 3 h. […]

[4] = test system: CHO cells; assay: MTT cell viability assay, CHO; assay type: cell-based, Chinese hamster; conditions: Cricetulus griseus, 24 h treatment
Procedure: Metastatic ovarian adenocarcinoma (SKOV-3) and normal Chinese hamster ovary (CHO) cell lines were originally obtained from the American Type Culture Collection (ATCC; Manassas, VA). SKOV-3 cells were cultured in McCoy’s 5A medium and CHO cells were cultured in F12K medium. A human periodontal ligament fibroblast cell line was purchased from Lonza, USA and maintained in stroma cell basal medium. T1074 (normal immortalized human ovarian surface epithelial cell line) was originally purchased from Applied Biological Materials (abm®) Canada and cultured in Prigrow 1 medium.
The inhibitory effects of artonin E and two positive controls paclitaxel and carboplatin were examined by MTT assay. Cells at a density of 5×10^3cells/well were placed in a 96-well plate and left for 24 h to attach. The attached cells were exposed to artonin E, paclitaxel, and carboplatin at different concentrations and incubated for 24, 48, and 72 h. Subsequently, 20 μL of 5 mg/mL MTT solution was added after drug treatment and the resulting mixture was incubated for 4 h to form purple formazan. Afterward, 100 μL of dimethyl sulfoxide (DMSO) was transferred into each well to dissolve the purple formazan, and results were measured using a microplate reader (Tecan Infinite M 200 PRO, Männedorf, Switzerland) at an absorbance of 570 nm. […]

[5] = test system: H460 cells; design: method as in PMID 23225436; conditions: dose-dependent manner; cited from earlier work
[6] = test system: SKOV-3 cells; assay: Clonogenic assay; assay type: cell-based, human; conditions: three weeks incubation
Procedure: The SKOV-3 cells were trypsinized, centrifuged, and supplemented with fresh media. The cells were immediately counted and seeded (300 cells/plate) in a 60 mm Petridish, and left overnight to attach. The attached cells were treated with 0, 1, 5, 10, 15, and 20 μg/mL of artonin E for 24 h. Following incubation, the treated media were removed and fresh media were added. The cells were incubated for three weeks to form colonies. Surviving colonies were fixed with 90% ethanol and stained with crystal violet.

[7] = molecular target: arachidonate 5-lipoxygenase; design: method as in PMID 14559276; conditions: read-out: IC50 value, arachidonate 5-lipoxygenase inhibition; cited from earlier work

For CC(C)=CCc1c(-c2cc(O)c(O)cc2O)oc2c3c(cc(O)c2c1=O)OC(C)(C)C=C3 [Artonin E, artonin E], the “increase in the formation of ROS compared with untreated cells” value ([1]; 24 and 48 h after treatment) was “twofold”, the ROS induction ([1]; 72 h after treatment) was “slightly decreased” and the “stimulation of caspase-9” value [2] was “increased significantly”. The “DNA fragmentation (ladder pattern)” value [3] was “distinctly observed”, the IC50 [4] was 57.6 ± 2 µg/mL (≈ 132 µM) and the “anoikis (detachment-induced apoptosis) of H460 cells” value [5] was “enhances anoikis”. The colony formation ([6]; SKOV-3, 5 μg/mL for 24 h) was “almost half of the colonies were reduced”, the colony formation ([6]; SKOV-3, 10 μg/mL for 24 h) was “decreasing sharply” and the colony formation ([6]; SKOV-3, 15 and 20 μg/mL for 24 h) was “No colonies were formed”. The IC50 [7] was 360 nM.
